Assay results reported in patent publication US20250041313A1, “COMBINATION THERAPY FOR TREATMENT OF CANCER” (CITY OF HOPE, priority 2023, published 2025).
Read-outs that look alike come from different tables or passages of the source.

Legend:
Assay type in all cases: cell-based, human
[1] = system: SBC3 cells; assay: CCK-8 cell viability/cytotoxicity assay, 72 h; settings: Homo sapiens, SBC-3
Experimental: (§1) The expression levels of DRP1 and DHODH in SCLC lines were compared with non-malignant BEAS 2B cells. […] Previous studies have shown that Leflu and its active metabolite Teri regulate mitochondrial morphology (9,10,26). […] In vitro cytotoxicity effect of Teri and Leflu was tested in a panel of SCLC cell lines. Ten SCLC cell lines were treated with increasing concentrations of each drug for 72 h.
(§2) Isobologram and CI50 values were calculated using the Chou-Talalay method and IC50 to find synergism (FIG. 3B).

[2] = system: SBC5 cells; assay: CCK-8 cell viability/cytotoxicity assay, 72 h
Experimental: as §1, §2

[3] = system: SBC3 cells; assay: Imaris quantification of mitochondrial and nuclear areas/morphology
Experimental: (§3) Imaris 9.9.0 (Bitplane, AG), with Surfaces and Cells modules, was used to generate mitochondria morphology data from 2D images and 2D Z-stack subsets. Surfaces were used to evaluate individual mitochondria from cell monolayers and spheroids. Detection parameters were optimized for visible mitochondria and nuclei in each group with varying signal intensities. Roundness ratios were calculated from Surface generated Bounding Box 00 Length measurements. Object lengths less than 0.1 μm were excluded, and lengths greater than 1.26 μm were separately analyzed as clusters. Thresholds were uniformly applied to roundness ratios to categorize mitochondria morphology as elongated (<0.599), intermediate (≥0.600-0.649), or round/fragmentated (≥0.650). The percentage of cells from total number is based on a ratio. A perfectly round object has a ratio of 1.0. The Cells module was used to detect and quantify mitochondria and nucleus area from cell monolayers. Identical parameters were applied to all groups with cell boundary detection based on mitochondria signals. Imaris includes nuclei in cytoplasm measurements, so mitochondrial area is calculated by subtracting nucleus area from cell cytoplasm area. Abnormal nuclei were excluded (<100 μm^2, >750 μm^2).
MitoTracker Red and Hoechst 33342 were used to validate Teri and Leflu effects on intact mitochondrial morphology in SBC3 and SBC5 cells. M1 and MDIVI1 compounds were used as positive controls because they are promoters of mitochondrial fusion. Mitochondrial and nuclear areas were quantified by analyzing object surface area and intensity in Imaris 9.9.0.

[4] = system: SBC5 cells; assay: as above; settings: for effect on mitochondrial areas: SBC5
Experimental: as §3
Next, we performed the same analysis with SBC5 cells. […] Mitochondrial elongation in SBC3 cells treated with Teri and Leflu is visible and correlates with Imaris Surface results. […] Although mitochondrial areas of SBC5 cells were not affected by Teri and Leflu treatments, elongations of individual mitochondria were detected with each treatment (FIG. 2I). […] Therefore, it is important to investigate the effects of Teri and Leflu on mitochondrial morphology and cell survival in combination with chemotherapeutic drugs.

[5] = system: H446 spheroids; assay: Immunoblotting of spheroid lysates; settings: for DRP1 phosphorylation at Ser616: Teri 1600 and 3200 nM
Experimental: SCLC total cell lysates were prepared using RIPA (radioimmunoprecipitation assay lysis buffer) lysis buffer. Protein concentration was determined using DC Protein Assay Kit Bio-Rad (Hercules, CA). Samples were then run on SDS-PAGE in 4-15% polyacrylamide gels and transferred onto Immobilon membranes (Millipore, MO), blocked, incubated with specific primary antibodies at 4° C. overnight, and subsequently developed with secondary antibodies. The following primary antibody were used: pan-Actin, Phospho-DRP1 (Ser^616), Phospho-DRP1 (Ser^637), Histone H2B (V^119), Phospho-Histone H2A.X (Ser^139), Phospho-P53 (Ser^15), P-53, Cleaved PARP (Asp^214) (D64E10), Phospho-Chk1 (Ser^345) (133D3) and p21 were from Cell Signaling Technology (City of Industry, CA), β-Actin (Sigma-Aldrich, St. Luis, MO), Phospho RNA Polymerase II (S2) antibody (Bethyl Lab, Montgomery, TX), RNA Polymerase II CTD4H8 (BioLegend, San Diego, CA), DHODH (E-8), DRP1 (C-5), GAPDH (0411), c-Myc (9E10), Tom20 (F-10), FisI (B-5), OPA1 (D-9), antibodies from Santa Cruz Biotechnology (Dallas, TX) and MFN2 (Abcam, Boston, MA) and Chk1, MDM2, Cyclin CDK4 and D1, and E2F1 (Proteintech, Rosemont, IL).
SBC3 and H446 cells were plated at a density of 10,000 cells per well in 96-well ULA round-bottomed plates (S-Bio, Hudson, NH) and incubated for 72 h at 37° C., 5% CO2, and 95% humidity. Spheroids were transferred to low cell attachment dishes, grown for two days, and treated with drug. After treatment, spheroid samples were run with Western blot assay. For spheroid mitochondria visualization, they were stained with 250 nM MitoTracker® Red CMXRos and Hoechst from ThermoFisher Scientific (Waltham, MA) for 2 h after drug treatment. Spheroids were washed, fixated with 4% PFA, transferred into 96-well flat glass-bottom black microplate (Cellvis, Mountain View, CA), and mounted in wells.

[6] = SBC3 cells, 72 h, read-out: IC50

Row | SMILES | IC50 [1, 6] | IC50 ([2]; Homo sapiens, SBC-5, 72 h) | Mitochondrial elongation (Airyscan imaging) ([3]; SBC3) | effect on mitochondrial or nuclear areas ([3]; SBC3) | effect on mitochondrial areas [4] | Nuclear area ([4]; SBC5, 20 μM) | CDK4 [5] | DRP1 phosphorylation at Ser616 [5] | IC50 ([1]; SBC3, CCK-8 72 h, fixed concentrations of Teri and Carbo, read-out: IC50, single treatment and combination treatment) | IC50 [2] | Mitochondrial area ([3]; SBC3, 10 μM) | Nuclear size (area) ([3]; SBC3, 10 μM) | Mitochondrial area ([3]; SBC3, 20 μM) | Nuclear size (area) ([3]; SBC3, 20 μM) | Nuclear area ([4]; SBC5, 10 μM) | p21 [5]
1 | Cc1oncc1C(=O)Nc1ccc(C(F)(F)F)cc1 [Leflunomide, leflunomide] | 8.9 µM | 108 µM | visible | did not affect | not affected | 386.8±7.23 μm^2 | – | – | – | – | – | – | – | – | – | –
2 | COc1ccc2[nH]c3c(c2c1)CCN[C@]31CS[C@@H]2c3c(OC(C)=O)c(C)c4c(c3[C@H](COC1=O)N1[C@@H]2[C@H]2c3c(cc(C)c(OC)c3O)C[C@@H]([C@@H]1O)N2C)OCO4 [Lurbinectedin, lurbinectedin] | – | – | – | – | – | – | inactivated | reduction | – | – | – | – | – | – | – | –
3 | C/C(O)=C(\C#N)C(=O)Nc1ccc(C(F)(F)F)cc1 [Teriflunomide, teriflunomide] | 2 µM | 30 µM | visible | – | not affected | 369.8±5.94 μm^2 | – | dose-dependent inhibition | 4.24 µM | 33 µM | 569±19.9 μm^2 | 386.8±10.86 μm^2 | 604.8±28.9 μm^2 | 423.5±16.57 μm^2 | 369.5±6.15 μm^2 | strongly elevated
